Measured values as given in patent publication US8648066B2 (Exelixis, Inc., priority 2009, dated 2014).

What follows are compounds tested against mTOR/GbL/Raptor (mTORC1) (Homo sapiens, UniProt P42345) (assay: mTOR/GbL/Raptor (mTORC1) ELISA assay). Settings: phosphorylation of 4E-BP1; 0.2 nM mTORC1, 10 μM ATP; read-out: IC50 in this assay (mTORC1 ELISA).
Assay type: biochemical
Procedure, shortened: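 Human mTORC1 (0.2 nM) phosphorylated 50 nM His-tagged 4E-BP1 with 10 µM ATP in HEPES pH 7.2 containing 10 mM MnCl2, 120 min at ambient temperature. Substrate was captured on Ni-chelate plates; phospho-4E-BP1 was detected by primary antibody and HRP secondary with luminescence.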

Q: With `COc1ccc2c(N3CCOc4ccc(-c5ccc6[nH]ncc6c5)cc4C3)nc(C)nc2c1` [Example 274, 7-(1H-indazol-5-yl)-4-[2-methyl-7-(methyloxy)quinazolin-4-yl]-2,3,4,5-tetrahydro-1,4-benzoxazepine] as the compound, how does the IC50 read?
A: ≥ 2000 nM

Q: Which IC50 does the source give for `CCNc1nc2ccc(-c3ccc4c(c3)CN(c3cc(Nc5ccccc5)ncn3)CCO4)cc2[nH]1` [Example 275, N-ethyl-6-{4-[6-(phenylamino)pyrimidin-4-yl]-2,3,4,5-tetrahydro-1,4-benzoxazepin-7-yl}-1H-benzimidazol-2-amine] here?
A: 50 to 250 nM

Q: How did the IC50 turn out when `CCNc1nc2ccc(-c3ccc4c(c3)CN(c3cc(Nc5ccc(OC)cc5)ncn3)CCO4)cc2[nH]1` [Example 276, N-ethyl-6-[4-(6-{[4-(methyloxy)phenyl]amino}pyrimidin-4-yl)-2,3,4,5-tetrahydro-1H-benzoxazepin-7-yl]-1H-benzimidazol-2-amine] was run?
A: 250 to 1000 nM

Q: How did the IC50 turn out when `CCNc1nc2ccc(-c3ccc4c(c3)CN(c3ccncn3)CCO4)cc2[nH]1` [Example 277, N-ethyl-6-(4-pyrimidin-4-yl-2,3,4,5-tetrahydro-1,4-benzoxazepin-7-yl)-1H-benzimidazol-2-amine] was run?
A: 1000 to 2000 nM

Q: How did the IC50 turn out when `CCNc1nc2ccc(-c3ccc4c(c3)CN(c3ccnc5ccc(OC)cc35)CCO4)cc2[nH]1` [Example 278, N-ethyl-6-{4-[6-(methyloxy)quinolin-4-yl]-2,3,4,5-tetrahydro-1,4-benzoxazepin-7-yl}-1H-benzimidazol-2-amine] was run?
A: 50 to 250 nM

Q: With `CCNc1nc2ccc(-c3ccc4c(c3)CN(c3nc(CC)nc5cc(OC)ccc35)CCO4)cc2[nH]1` [Example 279, N-ethyl-6-{4-[2-ethyl-7-(methyloxy)quinazolin-4-yl]-2,3,4,5-tetrahydro-1,4-benzoxazepin-7-yl}-1H-benzimidazol-2-amine] as the compound, how does the IC50 read?
A: 250 to 1000 nM

Q: With `COc1ccc2c(N3CCOc4ccc(-c5ccc6nc[nH]c6c5)cc4C3)nc(C)nc2c1` [Example 280, 7-(1H-benzimidazol-6-yl)-4-[2-methyl-7-(methyloxy)quinoazolin-4-yl]-2,3,4,5-tetrahydro-1,4-benzoxazepine] as the compound, how does the IC50 read?
A: 250 to 1000 nM

Q: With `CCNc1nc2ccc(-c3ccc4c(c3)CN(c3ncnc5cc(F)ccc35)CCO4)cc2[nH]1` [Example 281, N-ethyl-6-[4-(7-fluoroquinazolin-4-yl)-2,3,4,5-tetrahydro-1,4-benzoxazepin-7-yl]-1H-benzimidazol-2-amine] as the compound, how does the IC50 read?
A: 50 to 250 nM

Q: With `CCNc1nc2ccc(-c3ccc4c(c3)CN(c3ccnc5c(F)cccc35)CCO4)cc2[nH]1` [Example 282, N-ethyl-6-[4-(8-fluoroquinolin-4-yl)-2,3,4,5-tetrahydro-1,4-benzoxazepin-7-yl]-1H-benzimidazol-2-amine] as the compound, how does the IC50 read?
A: 50 to 250 nM

Q: With `CCNc1nc2ccc(-c3ccc4c(c3)CN(c3ccnc5ccc(F)cc35)CCO4)cc2[nH]1` [Example 283, N-ethyl-6-[4-(6-fluoroquinolin-4-yl)-2,3,4,5-tetrahydro-1,4-benzoxazepin-7-yl]-1H-benzimidazol-2-amine] as the compound, how does the IC50 read?
A: 50 to 250 nM

Q: With `CCNc1nc2ccc(-c3ccc4c(c3)CN(c3cc(Nc5cccc(OC)c5)ncn3)CCO4)cc2[nH]1` [Example 284, N-ethyl-6-[4-(6-{[3-(methyloxy)phenyl]amino}pyrimidin-4-yl)-2,3,4,5-tetrahydro-1,4-benzoxazepin-7-yl]-1H-benzimidazol-2-amine] as the compound, how does the IC50 read?
A: 250 to 1000 nM

Q: With `COc1ccc2c(N3CCOc4ccc(-c5cnc(N)nc5)cc4C3)nc(C)nc2c1` [Example 286, 5-{4-[2-methyl-7-(methyloxy)quinazolin-4-yl]-2,3,4,5-tetrahydro-1,4-benzoxazepin-7-yl}pyrimidin-2-amine] as the compound, how does the IC50 read?
A: ≥ 2000 nM

Q: How did the IC50 turn out when `CCNc1nc2ccc(-c3ccc4c(c3)CN(c3ncnc(Nc5ccccc5)c3C)CCO4)cc2[nH]1` [Example 287, N-ethyl-6-{4-[5-methyl-6-(phenylamino)pyrimidin-4-yl]-2,3,4,5-tetrahydro-1,4-benzoxazepin-7-yl}-1H-benzimidazol-2-amine] was run?
A: 50 to 250 nM

Q: `COc1ccc2c(N3CCOc4ccc(-c5cnc6nc(N)[nH]c6c5)cc4C3)nc(C)nc2c1` [Example 289, 6-{4-[2-methyl-7-(methyloxy)quinazolin-4-yl]-2,3,4,5-tetrahydro-1,4-benzoxazepin-7-yl}-1H-imidazo[4,5-b]pyridin-2-amine] was tested. Which IC50 did it give?
A: 10 to 50 nM

Q: With `CCNc1nc2ncc(-c3ccc4c(c3)CN(c3nc(C)nc5c3CC(C)(C)CC5)CCO4)cc2[nH]1` [Example 290, N-ethyl-6-[4-(2,6,6-trimethyl-5,6,7,8-tetrahydroquinazolin-4-yl)-2,3,4,5-tetrahydro-1,4-benzoxazepin-7-yl]-1H-imidazo[4,5-b]pyridin-2-amine] as the compound, how does the IC50 read?
A: ≤ 10 nM

Q: `CCNc1nc2ccc(-c3ccc4c(c3)CN(c3ccnc5cc(OC)ccc35)CCO4)cc2[nH]1` [Example 291, N-ethyl-6-{4-[7-(methyloxy)quinolin-4-yl]-2,3,4,5-tetrahydro-1,4-benzoxazepin-7-yl}-1H-benzimidazol-2-amine] was tested. Which IC50 did it give?
A: 10 to 50 nM

Q: Which IC50 does the source give for `COc1ccc2c(N3CCOc4ccc(-c5cnc(N)s5)cc4C3)nc(C)nc2c1` [Example 292, 5-{4-[2-methyl-7-(methyloxy)quinazolin-4-yl]-2,3,4,5-tetrahydro-1,4-benzoxazepin-7-yl}-1,3-thiazol-2-amine] here?
A: 50 to 250 nM

Q: For `COc1ccc2c(N3CCOc4ccc(-c5cnc(NC(C)=O)s5)cc4C3)nc(C)nc2c1` [Example 293, N-(5-{4-[2-methyl-7-(methyloxy)quinazolin-4-yl]-2,3,4,5-tetrahydro-1,4-benzoxazepin-7-yl}-1,3-thiazol-2-yl)acetamide], which IC50 is on record?
A: ≥ 2000 nM

Q: How did the IC50 turn out when `CCNc1nc2ccc(-c3ccc4c(c3)CN(c3nc(C)nc5cc(F)ccc35)CCO4)cc2[nH]1` [Example 295, N-ethyl-6-[4-(7-fluoro-2-methylquinazolin-4-yl)-2,3,4,5-tetrahydro-1,4-benzoxazepin-7-yl]-1H-benzimidazol-2-amine] was run?
A: 50 to 250 nM

Q: With `COc1ccc2c(N3CCOc4ccc(-c5ccc6[nH]c(=O)[nH]c6c5)cc4C3)nc(C)nc2c1` [Example 296, 5-{4-[2-methyl-7-(methyloxy)quinazolin-4-yl]-2,3,4,5-tetrahydro-1,4-benzoxazepin-7-yl}-1,3-dihydro-2H-benzimidazol-2-one] as the compound, how does the IC50 read?
A: ≥ 2000 nM

Q: For `CC[C@H]1CCc2c(ncnc2N2CCOc3ccc(-c4cnc5nc([C@@H](C)N)[nH]c5c4)cc3C2)C1` [Example 297, (1R)-1-(6-{4-[(7S)-7-ethyl-5,6,7,8-tetrahydroquinazolin-4-yl]-2,3,4,5-tetrahydro-1,4-benzoxazepin-7-yl}-1H-imidazo[4,5-b]pyridin-2-yl)ethanamine], which IC50 is on record?
A: 50 to 250 nM

Q: For `CC[C@H]1CCc2c(ncnc2N2CCOc3ccc(-c4cnc5nc([C@H](C)N)[nH]c5c4)cc3C2)C1` [Example 298, (1S)-1-(6-{4-[(7S)-7-ethyl-5,6,7,8-tetrahydroquinazolin-4-yl]-2,3,4,5-tetrahydro-1,4-benzoxazepin-7-yl}-1H-imidazo[4,5-b]pyridin-2-yl)ethanamine], which IC50 is on record?
A: 50 to 250 nM

Q: `C[C@H](CO)CS(=O)(=O)c1cc(-c2ccc3c(c2)CN(c2ncnc4c2CC(C)(C)CC4)CCO3)cnc1N` [Example 299, (2R)-3-({2-amino-5-[4-(6,6-dimethyl-5,6,7,8-tetrahydroquinazolin-4-yl)-2,3,4,5-tetrahydro-1,4-benzoxazepin-7-yl]pyridin-3-yl}sulfonyl)-2-methylpropan-1-ol] was tested. Which IC50 did it give?
A: 10 to 50 nM
